Assay results published in PubChem BioAssay (NCI).
“And” between values parts separate entries of the source, which are not always exact repeats. Equal entries are not always repeated.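 Dose response: 5 concentrations. Exposure: 48 h. Format: 96-well plates. Endpoint: linear interpolation; highest concentration if not reached. The concentration for 50% growth inhibition is given as GI50. At the TGI there is no net growth.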

Key:
Assay in all cases: NCI anticancer screen, dose series, 48 h
UO-31 renal = test system: UO-31 renal
HCT-15 colon = test system: HCT-15 colon
UACC-62 melanoma = test system: UACC-62 melanoma
HT29 colon = test system: HT29 colon
MDA-MB-231 breast = test system: MDA-MB-231 breast
COLO 205 colon = test system: COLO 205 colon
TK-10 renal = test system: TK-10 renal
SNB-19 CNS = test system: SNB-19 CNS
NCI-H226 lung = test system: NCI-H226 lung
LOX IMVI melanoma = test system: LOX IMVI melanoma

CN(C)CCNCCN
TGI (UO-31 renal): > 100 µM
TGI (HCT-15 colon): > 100 µM
TGI (UACC-62 melanoma): > 100 µM
TGI (HT29 colon): > 100 µM
TGI (MDA-MB-231 breast): > 100 µM
TGI (COLO 205 colon): > 100 µM
TGI (TK-10 renal): > 100 µM
TGI (SNB-19 CNS): > 100 µM
TGI (NCI-H226 lung): > 100 µM
TGI (LOX IMVI melanoma): > 100 µM

C=CC(=O)N1CN(C(=O)C=C)CN(C(=O)C=C)C1
GI50 (UO-31 renal): 2.19 µM
TGI (UO-31 renal): 8.53 µM
GI50 (HCT-15 colon): 2.01 µM
TGI (HCT-15 colon): 4.68 µM
GI50 (UACC-62 melanoma): 3.49 µM
TGI (UACC-62 melanoma): 12 µM
GI50 (HT29 colon): 3.26 µM
TGI (HT29 colon): 10.4 µM
GI50 (MDA-MB-231 breast): 11.5 µM
TGI (MDA-MB-231 breast): 35.6 µM
GI50 (COLO 205 colon): 1.7 µM
TGI (COLO 205 colon): 3.59 µM
GI50 (TK-10 renal): 2.36 µM
TGI (TK-10 renal): 5.7 µM
GI50 (SNB-19 CNS): 33.1 µM
TGI (SNB-19 CNS): > 100 µM
GI50 (NCI-H226 lung): 5.87 µM
TGI (NCI-H226 lung): > 100 µM
GI50 (LOX IMVI melanoma): 1.72 µM
TGI (LOX IMVI melanoma): 5.78 µM

COC(=O)C1=COC(C)C2CN3CCc4c([nH]c5ccccc45)C3CC12 (stereo not drawn)
GI50 (UO-31 renal): 20.8 µM and > 100 µM
TGI (UO-31 renal): > 100 µM
GI50 (HCT-15 colon): 30 µM and > 100 µM
TGI (HCT-15 colon): > 100 µM
GI50 (UACC-62 melanoma): 24.4 µM and > 100 µM
TGI (UACC-62 melanoma): > 100 µM
GI50 (HT29 colon): 13.8 µM and > 100 µM
TGI (HT29 colon): 27.2 µM and > 100 µM
GI50 (MDA-MB-231 breast): 21.2 µM and > 100 µM
TGI (MDA-MB-231 breast): 65.3 µM and > 100 µM
GI50 (COLO 205 colon): 18.2 µM and > 100 µM
TGI (COLO 205 colon): 36.4 µM and > 100 µM
GI50 (TK-10 renal): 27.7 µM and > 100 µM
TGI (TK-10 renal): 88.5 µM and > 100 µM
TGI (SNB-19 CNS): > 100 µM
TGI (NCI-H226 lung): 29.4 µM and > 100 µM
GI50 (LOX IMVI melanoma): 18.5 µM and > 100 µM
TGI (LOX IMVI melanoma): 45.5 µM and > 100 µM

Cc1ccc(OCCOCCOCCOCCOc2ccc(C)n(O)c2=S)c(=S)n1O
GI50 (UO-31 renal): 0.0177 µM
TGI (UO-31 renal): 4.14 µM
GI50 (HCT-15 colon): < 0.0104 µM
TGI (HCT-15 colon): > 100 µM
GI50 (UACC-62 melanoma): 0.115 µM
TGI (UACC-62 melanoma): 40.5 µM
GI50 (HT29 colon): < 0.01 µM
TGI (HT29 colon): > 100 µM
GI50 (MDA-MB-231 breast): 0.114 µM
TGI (MDA-MB-231 breast): > 100 µM
GI50 (COLO 205 colon): 0.0484 µM
TGI (COLO 205 colon): > 100 µM
GI50 (TK-10 renal): 0.527 µM
TGI (TK-10 renal): > 100 µM
GI50 (SNB-19 CNS): 0.221 µM
TGI (SNB-19 CNS): > 100 µM
GI50 (NCI-H226 lung): < 0.0291 µM
TGI (NCI-H226 lung): 12.7 µM
GI50 (LOX IMVI melanoma): 0.0481 µM
TGI (LOX IMVI melanoma): > 69.6 µM

CC(C)c1[nH]nc2c1N=C(c1ccccc1Cl)c1cc([N+](=O)[O-])ccc1N2
GI50 (UO-31 renal): 5.46 µM
TGI (UO-31 renal): > 18.5 µM
GI50 (HCT-15 colon): 3.86 µM
TGI (HCT-15 colon): > 25 µM
GI50 (UACC-62 melanoma): 4.18 µM
TGI (UACC-62 melanoma): > 23.5 µM
GI50 (HT29 colon): 8.72 µM
TGI (HT29 colon): > 22.2 µM
GI50 (MDA-MB-231 breast): 7.92 µM
TGI (MDA-MB-231 breast): > 25 µM
GI50 (COLO 205 colon): 10.3 µM
TGI (COLO 205 colon): > 25 µM
GI50 (TK-10 renal): 7.31 µM
TGI (TK-10 renal): > 23.1 µM
GI50 (SNB-19 CNS): 11.8 µM
TGI (SNB-19 CNS): > 25 µM
GI50 (NCI-H226 lung): 5.09 µM
TGI (NCI-H226 lung): 16.1 µM
GI50 (LOX IMVI melanoma): 5 µM
TGI (LOX IMVI melanoma): > 17.5 µM

O=C(Nc1cc(Cl)ccc1O)c1ccc(Nc2ccnc(C(F)(F)F)c2)cc1
GI50 (UO-31 renal): 1.93 µM
TGI (UO-31 renal): 6.13 µM
GI50 (HCT-15 colon): 2.86 µM
TGI (HCT-15 colon): > 100 µM
GI50 (UACC-62 melanoma): 2.3 µM
TGI (UACC-62 melanoma): 15.5 µM
GI50 (HT29 colon): 6.35 µM
TGI (HT29 colon): > 100 µM
GI50 (MDA-MB-231 breast): 2.11 µM
TGI (MDA-MB-231 breast): 6.35 µM
GI50 (COLO 205 colon): 1.86 µM
TGI (COLO 205 colon): 4.23 µM
GI50 (TK-10 renal): 2 µM
TGI (TK-10 renal): 7.89 µM
GI50 (SNB-19 CNS): 2.15 µM
TGI (SNB-19 CNS): 7.78 µM
GI50 (NCI-H226 lung): 2.02 µM
TGI (NCI-H226 lung): 7.33 µM
GI50 (LOX IMVI melanoma): 3.09 µM
TGI (LOX IMVI melanoma): 76.9 µM

O=C(Nc1cc(Nc2ncccc2-c2ncnc3nc[nH]c23)ccc1F)c1cc(C(F)(F)F)cc(C(F)(F)F)c1
GI50 (UO-31 renal): 0.319 µM
TGI (UO-31 renal): 1.99 µM
GI50 (HCT-15 colon): 2.12 µM
TGI (HCT-15 colon): 5.67 µM
GI50 (UACC-62 melanoma): 0.38 µM
TGI (UACC-62 melanoma): 2.32 µM
GI50 (HT29 colon): 0.446 µM
TGI (HT29 colon): 4.03 µM
GI50 (MDA-MB-231 breast): 1.04 µM
TGI (MDA-MB-231 breast): 2.79 µM
GI50 (COLO 205 colon): 0.39 µM
TGI (COLO 205 colon): 2.2 µM
GI50 (TK-10 renal): 3.75 µM
TGI (TK-10 renal): > 10 µM
GI50 (SNB-19 CNS): 3.78 µM
TGI (SNB-19 CNS): > 10 µM
GI50 (NCI-H226 lung): 2.74 µM
TGI (NCI-H226 lung): > 10 µM
GI50 (LOX IMVI melanoma): 0.384 µM
TGI (LOX IMVI melanoma): 2.02 µM

CCC/C=C/C=C/C1CC(O)C(O)C(=O)C1CO (stereo not drawn)
TGI (UO-31 renal): > 100 µM
TGI (HCT-15 colon): > 100 µM
TGI (UACC-62 melanoma): > 100 µM
TGI (HT29 colon): > 100 µM
TGI (MDA-MB-231 breast): > 100 µM
TGI (COLO 205 colon): > 100 µM
TGI (TK-10 renal): > 100 µM
TGI (SNB-19 CNS): > 100 µM
TGI (NCI-H226 lung): > 100 µM
TGI (LOX IMVI melanoma): > 100 µM

Cn1c(=O)c2c(nc(C(=N)SCC(=O)O)n2C)n(C)c1=O
TGI (UO-31 renal): > 100 µM
TGI (HCT-15 colon): > 100 µM
TGI (UACC-62 melanoma): > 100 µM
TGI (HT29 colon): > 100 µM
TGI (MDA-MB-231 breast): > 100 µM
TGI (COLO 205 colon): 71.5 µM
TGI (TK-10 renal): > 100 µM
TGI (SNB-19 CNS): > 100 µM
TGI (NCI-H226 lung): > 100 µM
TGI (LOX IMVI melanoma): > 100 µM

Cc1cc(N/N=C/c2ccccn2)nc2ccccc12
GI50 (UO-31 renal): 0.286 µM
TGI (UO-31 renal): 2.29 µM
GI50 (HCT-15 colon): 0.336 µM
TGI (HCT-15 colon): 16.3 µM
GI50 (UACC-62 melanoma): 0.406 µM
TGI (UACC-62 melanoma): 3.36 µM
GI50 (HT29 colon): 0.605 µM
TGI (HT29 colon): 13.1 µM
GI50 (MDA-MB-231 breast): 0.469 µM
TGI (MDA-MB-231 breast): 14.3 µM
GI50 (COLO 205 colon): 0.367 µM
TGI (COLO 205 colon): 12.4 µM
GI50 (TK-10 renal): 0.674 µM
TGI (TK-10 renal): 20.6 µM
GI50 (SNB-19 CNS): 0.535 µM
TGI (SNB-19 CNS): 26.3 µM
GI50 (NCI-H226 lung): 0.286 µM
TGI (NCI-H226 lung): 4.93 µM
GI50 (LOX IMVI melanoma): 0.413 µM
TGI (LOX IMVI melanoma): 10.9 µM

O=C1Nc2ccccc2/C1=C1\CCc2cc(O)ccc21
GI50 (UO-31 renal): 1.67 µM
TGI (UO-31 renal): > 23.9 µM
GI50 (HCT-15 colon): 5.26 µM
TGI (HCT-15 colon): > 25 µM
GI50 (UACC-62 melanoma): 7.73 µM
TGI (UACC-62 melanoma): > 25 µM
GI50 (HT29 colon): 9.77 µM
TGI (HT29 colon): > 25 µM
GI50 (MDA-MB-231 breast): 7.22 µM
TGI (MDA-MB-231 breast): > 25 µM
GI50 (COLO 205 colon): 12.4 µM
TGI (COLO 205 colon): > 25 µM
GI50 (TK-10 renal): 10.7 µM
TGI (TK-10 renal): > 25 µM
GI50 (SNB-19 CNS): 13.2 µM
TGI (SNB-19 CNS): > 25 µM
GI50 (NCI-H226 lung): 12.4 µM
TGI (NCI-H226 lung): > 25 µM
GI50 (LOX IMVI melanoma): 6.5 µM
TGI (LOX IMVI melanoma): > 25 µM

COc1cc2c(/C=N\N=C(N)N)c[nH]c2cc1C
GI50 (UO-31 renal): > 100 µM
TGI (UO-31 renal): > 100 µM
GI50 (HCT-15 colon): 35.8 µM
TGI (HCT-15 colon): > 100 µM
GI50 (UACC-62 melanoma): 16 µM
TGI (UACC-62 melanoma): 33 µM
GI50 (HT29 colon): 18 µM
TGI (HT29 colon): 37.1 µM
GI50 (MDA-MB-231 breast): 14.7 µM
TGI (MDA-MB-231 breast): 34.1 µM
GI50 (COLO 205 colon): 17.3 µM
TGI (COLO 205 colon): 35.1 µM
GI50 (TK-10 renal): 38.4 µM
TGI (TK-10 renal): > 100 µM
GI50 (SNB-19 CNS): 19.2 µM
TGI (SNB-19 CNS): 54.5 µM
GI50 (NCI-H226 lung): 17.1 µM
TGI (NCI-H226 lung): 71.8 µM
GI50 (LOX IMVI melanoma): 31.8 µM
TGI (LOX IMVI melanoma): > 100 µM

COc1ccc(/C(C)=C(\c2ccc(OCCN3CCCCCC3)cc2)c2ccc(OC(=O)C3CCCCC3)cc2)cc1
GI50 (UO-31 renal): 0.453 µM
TGI (UO-31 renal): 2.22 µM
GI50 (HCT-15 colon): 0.378 µM
TGI (HCT-15 colon): 1.41 µM
GI50 (UACC-62 melanoma): 0.892 µM
TGI (UACC-62 melanoma): 2.85 µM
GI50 (HT29 colon): 0.46 µM
TGI (HT29 colon): 2.14 µM
GI50 (MDA-MB-231 breast): 1.05 µM
TGI (MDA-MB-231 breast): 3 µM
GI50 (COLO 205 colon): 0.626 µM
TGI (COLO 205 colon): 4.06 µM
GI50 (TK-10 renal): 1.84 µM
TGI (TK-10 renal): 4.25 µM
GI50 (SNB-19 CNS): 2.45 µM
TGI (SNB-19 CNS): 10.5 µM
GI50 (NCI-H226 lung): 2.02 µM
TGI (NCI-H226 lung): 4.77 µM
GI50 (LOX IMVI melanoma): 0.319 µM
TGI (LOX IMVI melanoma): 0.788 µM
